Data: PMC2193167 (The Journal of Experimental Medicine, 2000)
No end group written: not given here.

Legend:
HLA-A*0201 = HLA-A*0201 (Homo sapiens, UniProt P04439, D140Y/D185E/D98H/E176V/E277Q/G131W/G231S/I119V/I121R/I166T/I218V/L300P/L318F/N151K/N90K/P208A/P217A/Q86G/Q94H/R138H/R169H/T345S); assay: Class I peptide binding affinity assay
[1] = test system: normal melanocytes in AAD^+tyrosinase^+ (or AAD^−) C57BL/6 mice; settings: mouse, in vivo

With `CSCC[C@H](NC(=O)[C@@H](NC(=O)CNC(=O)[C@H](CC(=O)O)NC(=O)[C@H](CCSC)NC(=O)[C@@H](N)Cc1ccc(O)cc1)[C@@H](C)O)C(=O)N[C@@H](CO)C(=O)N[C@@H](CCC(N)=O)C(=O)N[C@H](C(=O)O)C(C)C` [YMDGTMSQV] the IC50 (HLA-A*0201) was 74 nM.

Work on FMDGTMSQV [FMDGTMSQV] yielded an IC50 (HLA-A*0201) of 65 nM.

In the case of “IL-2: Proleukin (IL-2; Chiron), given alone without CTLs”, the “vitiligo, in words” value [1] is reported as “vitiligo was not observed”.
